Data set [1] deals with T1, human OCT2 (Homo sapiens, UniProt O15244, S270A).
T1 sequence (O15244 1-555 S270A): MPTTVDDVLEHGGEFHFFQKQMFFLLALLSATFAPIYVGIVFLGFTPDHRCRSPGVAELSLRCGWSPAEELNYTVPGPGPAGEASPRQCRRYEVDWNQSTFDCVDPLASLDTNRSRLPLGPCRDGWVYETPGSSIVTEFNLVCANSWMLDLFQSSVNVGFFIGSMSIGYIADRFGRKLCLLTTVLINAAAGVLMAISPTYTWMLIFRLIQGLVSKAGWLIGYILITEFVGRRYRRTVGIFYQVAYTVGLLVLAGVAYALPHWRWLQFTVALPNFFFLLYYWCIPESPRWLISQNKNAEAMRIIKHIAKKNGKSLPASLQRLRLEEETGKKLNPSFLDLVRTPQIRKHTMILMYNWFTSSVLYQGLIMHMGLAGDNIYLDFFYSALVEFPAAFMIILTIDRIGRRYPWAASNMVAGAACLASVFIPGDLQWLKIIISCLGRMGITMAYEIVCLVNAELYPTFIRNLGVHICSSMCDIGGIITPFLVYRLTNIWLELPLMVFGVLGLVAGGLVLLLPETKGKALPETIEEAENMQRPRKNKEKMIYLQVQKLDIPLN
Kind of data set: ASP+ uptake inhibition in HEK293 cells stably expressing OCT2. Conditions: for inhibition of renal OCT2 and MATE1 compared to hepatic OCT1: concentration-dependent inhibition, Figure 4C; for inhibition of OCT2 mediated transport: ASP+ 5 µM.

For data set [2], the target named is T2, human OCT1 (Homo sapiens, UniProt O15245).
T2 sequence (O15245 1-554): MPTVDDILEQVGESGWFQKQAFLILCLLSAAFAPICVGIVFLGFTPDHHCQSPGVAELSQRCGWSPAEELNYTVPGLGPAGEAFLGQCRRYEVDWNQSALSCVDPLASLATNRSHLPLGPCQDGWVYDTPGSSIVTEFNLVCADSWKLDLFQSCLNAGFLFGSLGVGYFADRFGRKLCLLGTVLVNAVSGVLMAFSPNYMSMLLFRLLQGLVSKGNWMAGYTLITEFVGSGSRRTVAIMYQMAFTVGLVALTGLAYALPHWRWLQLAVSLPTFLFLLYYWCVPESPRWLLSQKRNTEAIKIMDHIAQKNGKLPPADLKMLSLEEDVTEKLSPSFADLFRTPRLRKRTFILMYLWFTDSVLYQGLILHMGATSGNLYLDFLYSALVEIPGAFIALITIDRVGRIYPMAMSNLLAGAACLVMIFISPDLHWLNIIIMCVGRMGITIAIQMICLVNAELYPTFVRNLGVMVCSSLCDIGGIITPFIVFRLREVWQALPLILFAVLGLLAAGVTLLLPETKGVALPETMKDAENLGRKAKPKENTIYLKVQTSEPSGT
Conditions: screen at 20 µM.

Data set [3] has as its target T3, MATE1 (Homo sapiens, UniProt Q96FL8).
T3 sequence (Q96FL8 1-570): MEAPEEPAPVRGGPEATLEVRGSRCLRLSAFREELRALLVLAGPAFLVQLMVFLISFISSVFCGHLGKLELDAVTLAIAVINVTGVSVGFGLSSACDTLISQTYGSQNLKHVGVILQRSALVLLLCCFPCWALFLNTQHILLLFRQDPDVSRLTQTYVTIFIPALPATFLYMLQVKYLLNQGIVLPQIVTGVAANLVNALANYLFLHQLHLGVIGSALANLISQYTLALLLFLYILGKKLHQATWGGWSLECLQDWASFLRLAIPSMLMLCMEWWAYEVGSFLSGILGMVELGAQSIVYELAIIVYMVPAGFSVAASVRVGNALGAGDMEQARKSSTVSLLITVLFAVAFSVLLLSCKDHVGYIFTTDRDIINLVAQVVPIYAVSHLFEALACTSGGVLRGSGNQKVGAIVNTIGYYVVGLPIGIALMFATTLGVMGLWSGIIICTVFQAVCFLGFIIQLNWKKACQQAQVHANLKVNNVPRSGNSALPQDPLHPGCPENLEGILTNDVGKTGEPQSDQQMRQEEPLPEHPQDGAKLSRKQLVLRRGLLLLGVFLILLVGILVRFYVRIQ
Description: ASP+ uptake inhibition in HEK293 cells stably expressing MATE1. The data set is classed as cell-based. The settings on record: for inhibition potency for MATE1 versus other transporters of the panel: concentration-dependent inhibition, Figure 4C.

Data set [4] addresses MATE2-K (Homo sapiens, UniProt Q86VL8). Kind of data set: ASP+ uptake inhibition in HEK293 cells stably expressing MATE2-K. The data set is classed as cell-based.
In data set [5] the target is T4, OCT2-A270S (Homo sapiens, UniProt O15244).
T4 sequence (O15244 1-555): T1 sequence (O15244 1-555 S270A) with A270S
Kind of data set: ASP+ uptake inhibition in HEK293 cells stably expressing OCT2-A270S. The data set is classed as cell-based. Conditions: for affinity towards OCT2-A270S compared to reference protein: concentration-dependent inhibition, Figure 4C.

For data set [6] the following is noted: collected from the literature; cited from earlier work.

Positions count from the first letter of the chain named.

MATE2-K, sequence (Q86VL8 1-566 isoform Q86VL8-3): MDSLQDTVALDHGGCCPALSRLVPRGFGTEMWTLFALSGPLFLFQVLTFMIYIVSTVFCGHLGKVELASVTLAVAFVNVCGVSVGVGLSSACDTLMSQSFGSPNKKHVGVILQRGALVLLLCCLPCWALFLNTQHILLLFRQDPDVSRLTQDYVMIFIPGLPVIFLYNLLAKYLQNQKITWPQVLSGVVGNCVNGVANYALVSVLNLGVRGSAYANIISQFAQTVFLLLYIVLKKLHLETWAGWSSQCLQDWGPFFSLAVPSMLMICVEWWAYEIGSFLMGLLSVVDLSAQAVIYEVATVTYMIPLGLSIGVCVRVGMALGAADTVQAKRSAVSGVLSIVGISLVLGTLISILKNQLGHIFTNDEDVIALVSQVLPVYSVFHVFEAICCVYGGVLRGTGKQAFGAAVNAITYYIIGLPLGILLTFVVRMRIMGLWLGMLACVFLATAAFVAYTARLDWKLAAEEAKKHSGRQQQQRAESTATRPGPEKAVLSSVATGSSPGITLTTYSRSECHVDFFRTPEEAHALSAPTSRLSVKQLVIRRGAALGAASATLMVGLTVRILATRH

On to `COc1cc(C(=O)NS(=O)(=O)c2ccccc2C)ccc1Cc1cn(C)c2ccc(NC(=O)OC3CCCC3)cc12` [zafirlukast], for which the “inhibition in specificity screen (OCT2)” value in data set [1] (screen at 20 µM) is “showed affinity for all four organic cation transporters”. In addition, the “inhibition in specificity screen (OCT1)” value in data set [2] is on record as “showed affinity for all four organic cation transporters”. The “inhibition in specificity screen (MATE1)” value in data set [3] (screen at 20 µM) is given as “showed affinity for all four organic cation transporters”. In data set [4] (screen at 20 µM), the “inhibition in specificity screen (MATE2-K)” value is recorded as “showed affinity for all four organic cation transporters”.

Regarding `Cc1nccn1CC1CCc2c(c3ccccc3n2C)C1=O` (stereo not drawn) [Ondansetron], the “affinity towards OCT2-A270S compared to reference protein” value in data set [5] is recorded as “lower affinity towards the genetic variant OCT2-A270S than to the reference protein”. Besides, the “inhibition of renal OCT2 and MATE1 compared to hepatic OCT1” value in data set [1] was “preferential inhibition of the renal transporters OCT2 and MATE1 compared to the hepatic OCT1”. Moreover, in data set [3], the “inhibition potency for MATE1 versus other transporters of the panel” value is on record as “considerably higher inhibition potency for MATE1 than for the other transporters in the panel”. The “inhibition of transporter activity” value in data set [4] (inhibitor 250 µM) is “complete inhibition of transporter activity”.

As to `CN(C)CCCN1c2ccccc2CCc2ccccc21` [Imipramine], in data set [5], the “affinity towards OCT2-A270S compared to reference protein” value is recorded as “lower affinity towards the genetic variant OCT2-A270S than to the reference protein”. The “inhibition of renal OCT2 and MATE1 compared to hepatic OCT1” value in data set [1] is “preferential inhibition of the renal transporters OCT2 and MATE1 compared to the hepatic OCT1”. Further, in data set [6], the “PB, plasma protein binding” value is 90%.

On to `CN(C)c1ccc(C=Cc2cc[n+](C)cc2)cc1` [ASP^+, 4-(4-(dimethylamino)styryl)-N-methylpyridinium], for which, in data set [1] (read-out: Km of ASP+ transport, OCT2 specific uptake, HEK293 cells), the Km – broadly, the concentration of substrate that gives half-maximal velocity – came to 36.4 ± 6.8 µM.

In the case of `CC(C)N(CCC(C(N)=O)(c1ccccc1)c1ccccn1)C(C)C` (stereo not drawn) [Disopyramide], the “PB, plasma protein binding” value in data set [6] was 50%.

On to `CN/C(=N\CCSCc1nc[nH]c1C)NC#N` [Cimetidine], for which the “inhibition of transporter activity” value in data set [5] (inhibitor 500 µM) and in data set [3] (inhibitor 500 µM) was “complete inhibition of transporter activity” in each case. Moreover, the results for the “inhibition of OCT2 mediated transport” value in data set [1] (inhibitor 20 µM) and in data set [1] (inhibitor 500 µM) were “partial” and “complete inhibition of transporter activity”, respectively. The “inhibition potency for MATE1 versus other transporters of the panel” value in data set [3] is reported as “considerably higher inhibition potency for MATE1 than for the other transporters in the panel”.

The values above are taken from article PMC3257218 (Journal of Medicinal Chemistry, 2011).
